Measurements as given in PubChem BioAssay (NCI).
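Test compounds were applied to cells in 96-well plates for 48 hours at 5 doses. Definition used: TGI = concentration required for complete inhibition of growth.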

What was measured:
Test in all cases: DTP human tumour cell line panel, 48 h
[1] = system: 786-0 renal
[2] = system: OVCAR-5 ovarian
[3] = system: OVCAR-8 ovarian
[4] = system: CAKI-1 renal
[5] = system: NCI-H460 lung
[6] = system: KM12 colon
[7] = system: MOLT-4 leukemia
[8] = system: DLD-1 colon
[9] = system: HOP-62 NSCLC
[10] = system: HCT-116 colon
[11] = system: HL-60(TB) leukemia
[12] = system: A498 renal
[13] = system: NCI-H23 lung
[14] = system: M14 melanoma
[15] = system: NCI-H522 lung
[16] = system: IGROV1 ovarian
[17] = system: DMS 114 small cell lung
[18] = system: SNB-19 CNS
[19] = system: SK-MEL-28 melanoma
[20] = system: U251 CNS
[21] = system: UACC-62 melanoma
[22] = system: SK-OV-3 ovarian
[23] = system: TK-10 renal
[24] = system: XF 498 CNS
[25] = system: OVCAR-4 ovarian
[26] = system: RXF 393 renal
[27] = system: LXFL 529 NSCLC
[28] = system: MALME-3M melanoma
[29] = system: RXF-631 renal
[30] = system: EKVX NSCLC
[31] = system: SF-268 CNS
[32] = system: SF-539 CNS
[33] = system: SF-295 CNS
[34] = system: SK-MEL-2 melanoma
[35] = system: COLO 205 colon
[36] = system: ACHN renal
[37] = system: RPMI-8226 leukemia
[38] = system: HCC-2998 colon
[39] = system: OVCAR-3 ovarian
[40] = system: A549 NSCLC
[41] = system: LOX IMVI melanoma
[42] = system: SK-MEL-5 melanoma
[43] = system: HCT-15 colon
[44] = system: CCRF-CEM leukemia
[45] = system: HOP-18 NSCLC
[46] = system: K-562 leukemia
[47] = system: KM20L2 colon
[48] = system: UO-31 renal
[49] = system: UACC-257 melanoma
[50] = system: SNB-75 CNS
[51] = system: M19-MEL melanoma
[52] = system: SR leukemia
[53] = system: SNB-78 CNS
[54] = system: NCI-H226 lung
[55] = system: HOP-92 NSCLC
[56] = system: SN12C renal
[57] = system: HT29 colon
[58] = system: DMS 273 small cell lung
[59] = system: SW-620 colon

## CC(C)=CC1CC(=O)C1(C)Sc1ccccc1 (stereo unspecified)
[1]
  TGI: > 100 µM
[2]
  TGI: > 100 µM
[3]
  TGI: > 100 µM
[4]
  TGI: > 100 µM
[5]
  TGI: 54.4 µM
[6]
  TGI: > 100 µM
[7]
  TGI: 92.1 µM
[8]
  TGI: > 100 µM
[9]
  TGI: > 100 µM
[10]
  TGI: > 100 µM
[11]
  TGI: 46.7 µM
[12]
  TGI: > 100 µM
[13]
  TGI: > 100 µM
[14]
  TGI: > 100 µM
[15]
  TGI: 69.1 µM
[16]
  TGI: > 100 µM
[17]
  TGI: 32.6 µM
[18]
  TGI: > 100 µM
[19]
  TGI: > 100 µM
[20]
  TGI: > 100 µM
[21]
  TGI: > 100 µM
[22]
  TGI: > 100 µM
[23]
  TGI: > 100 µM
[24]
  TGI: 95.7 µM
[25]
  TGI: > 100 µM
[26]
  TGI: 72 µM
[27]
  TGI: > 100 µM
[28]
  TGI: > 100 µM
[29]
  TGI: > 100 µM
[30]
  TGI: > 100 µM
[31]
  TGI: > 100 µM
[32]
  TGI: > 100 µM
[33]
  TGI: > 100 µM
[34]
  TGI: > 100 µM
[35]
  TGI: 65.1 µM
[36]
  TGI: > 100 µM
[37]
  TGI: 45.9 µM
[38]
  TGI: > 100 µM
[39]
  TGI: > 100 µM
[40]
  TGI: > 100 µM
[41]
  TGI: 36.1 µM
[42]
  TGI: > 100 µM
[43]
  TGI: 34.8 µM
[44]
  TGI: 45 µM
[45]
  TGI: > 100 µM
[46]
  TGI: 59.4 µM
[47]
  TGI: > 100 µM
[48]
  TGI: > 100 µM
[49]
  TGI: > 100 µM
[50]
  TGI: > 100 µM
[51]
  TGI: 72.1 µM
[52]
  TGI: 41.4 µM
[53]
  TGI: > 100 µM
[54]
  TGI: > 100 µM
[55]
  TGI: 87 µM
[56]
  TGI: > 100 µM
[57]
  TGI: 66.6 µM

## CN1CCC(SC2Cc3cc(Cl)ccc3Sc3ccccc32)CC1 (stereo unspecified)
[1]
  TGI: 27.7 µM
[2]
  TGI: 30.3 µM
[3]
  TGI: 31.5 µM
[4]
  TGI: 23.7 µM
[5]
  TGI: 31.4 µM
[6]
  TGI: 23.2 µM
[7]
  TGI: 20.3 µM
[8]
  TGI: 28.2 µM
[10]
  TGI: 22.5 µM
[11]
  TGI: 19.5 µM
[12]
  TGI: 31.6 µM
[13]
  TGI: 27.9 µM
[14]
  TGI: 15.7 µM
[15]
  TGI: 28.4 µM
[16]
  TGI: 29.6 µM
[18]
  TGI: 29 µM
[19]
  TGI: 4.78 µM
[20]
  TGI: 27.9 µM
[21]
  TGI: 11.4 µM
[22]
  TGI: 30.4 µM
[23]
  TGI: 26.5 µM
[24]
  TGI: 30 µM
[25]
  TGI: 29 µM
[26]
  TGI: 17.1 µM
[58]
  TGI: 26.2 µM
[27]
  TGI: 26.3 µM
[28]
  TGI: 28.8 µM
[29]
  TGI: 27.9 µM
[30]
  TGI: 34 µM
[31]
  TGI: 25.5 µM
[59]
  TGI: 30.9 µM
[32]
  TGI: 33.8 µM
[33]
  TGI: 30.7 µM
[35]
  TGI: 27.2 µM
[36]
  TGI: 28.6 µM
[37]
  TGI: 23.3 µM
[38]
  TGI: 21.3 µM
[39]
  TGI: 28.2 µM
[40]
  TGI: 29.7 µM
[41]
  TGI: 25.7 µM
[42]
  TGI: 26.8 µM
[43]
  TGI: 31.1 µM
[45]
  TGI: 26.7 µM
[46]
  TGI: 21.9 µM
[47]
  TGI: 17.8 µM
[48]
  TGI: 16.7 µM
[49]
  TGI: 21.3 µM
[50]
  TGI: 22.2 µM
[51]
  TGI: 25.3 µM
[52]
  TGI: 23.1 µM
[54]
  TGI: 30 µM
[55]
  TGI: 26.9 µM
[56]
  TGI: 28.5 µM
[57]
  TGI: 15.3 µM
